Measurements: patent US20260015574A1, “METHODS FOR SHORTENING LAG PHASE DURATION IN MICROORGANISMS” (YEDA RESEARCH AND DEVELOPMENT CO. LTD., priority 2022, published 2026)

Key:
[1] = system: P. inhibens dmdA KO mutant; experiment: Lag phase shortening in dmdA knockout mutant; type: cell-based, Phaeobacter inhibens
Procedure: For creation of P. inhibens knockout cells, ˜1,000 bp regions upstream and downstream of the gene of interest were amplified by PCR (Phusion High-Fidelity DNA polymerase, Thermo Scientific), using primers that added homologous regions to gentamycin or kanamycin resistance markers. The fragments were assembled and cloned into the TOPOII vector (Invitrogen) using restriction-free cloning (Peleg Y. & Unger T., 2014), generating a knockout (KO) plasmid. P. inhibens electrocompetent cells (300 μl) were transformed with 10 μg of the constructed KO plasmid by a pulse of 1.8 kV (Bio Rad). Cells were selected on ½YTSS agar plates containing 30 μg/ml gentamycin or 150 μg/ml kanamycin. Successful knockouts in single cell clones were verified by PCR and sanger sequencing.
The inventors further sought to better understand why methyl groups shorten the bacterial lag phase. The inventors list at least three cellular scenarios which could explain the effect that methylated compounds have on the lag phase: (1) methyl groups might be a limiting resource; (2) methyl groups might act as a signal that triggers a cellular cascade, which culminates in lag phase shortening; and (3) methylated compounds could accumulate intracellularly and function as osmoprotectants and antioxidants. […]

[2] = system: bacteria that are plant-associated; experiment: Lag phase shortening in plant-associated bacteria; type: cell-based
Description: To explore whether lag phase shortening is a general mechanism among bacteria, the inventors tested the effect of methylated compounds in bacteria with different lifestyles. […] Since methylated compounds are a hallmark of photosynthesizing organisms, the inventors next tested a variety of bacteria that are plant-associated. […] Finally, to establish the prevalence of lag phase shortening among bacteria, the inventors tested the model bacterium E. coli. This bacterium is not commonly found associated with photosynthesizing organisms, and thus, is unlikely to respond to algal metabolites. […] The synchrony between specific compounds and different groups of bacteria may reflect the natural context […].

[3] = system: betaine-homocysteine S-methyltransferase (Bmt); experiment: Methionine synthesis in vitro assay with purified Bmt; type: biochemical, P. inhibens; conditions: 200 μM methyl group donor, 2 mM homocysteine, 30° C., 2 h, fluorometric
Procedure: The expression plasmid pET29b encoding the bmt gene with a Strep-tag II peptide sequence fused to the N-terminus was purchased from Twist Biosciences. The methionine synthase gene mmuM from E. coli was PCR-amplified (Phusion High-Fidelity DNA polymerase, Thermo Scientific) and cloned into the pET29b vector using the CPEC technique (Quan J. & Tian J., 2009). Resulting clones were validated by sanger sequencing. E. coli BL21 electrocompetent cells were transformed with […] of the expression vectors, and cells were selected on LB agar plates containing 50 μg/ml kanamycin. Bacteria were grown in Tryptone Yeast extract Glucose (TYG) medium supplemented with 50 μg/ml kanamycin at 37° C. to mid-log phase (OD600 0.7). Then, cultures were induced with 0.2 mM of IPTG for 3 hours at 37° C. Bacteria were harvested by centrifugation (4,000 rpm for 15 min at 4° C.) and cells were resuspended in 20 mL of NP buffer (50 mM NaH2PO4, 300 mM NaCl, pH 8) and 100 μl of 10× Protease inhibitor (Sigma). […] The Protein concentration was determined with the Protein Assay Dye Reagent Concentrate (BioRad) following the manufacturer's instructions. […]
The methionine synthesis in vitro assay was based on the protocol of Ranocha et al., 2000. […] Methionine formation was measured from 20 μl of the in vitro reactions using the Fluorometric Methionine Assay Kit (Sigma; results depicted in FIG. 14). […]

C[S+](C)CCC(=O)[O-] [DMSP, dimethylsulfoniopropionate]
lag phase shortening [1]: does not shorten the lag phase
lag phase shortening [2]: to slightly less extent
methionine formation with DMSP as methyl group donor [3]: catalyzes the production of methionine
